From patent US20090325964A1, “Piperazine Metabotropic Glutamate Receptor 5 (MGLUR5) Negative Allosteric Modulators For Anxiety/Depression” (Wyeth, priority 2008, published 2009)
Read-outs that look alike come from different tables or passages of the source.

Columns and labels:
rat mGluR5 receptor = biological target: T1, rat mGluR5 receptor (Rattus norvegicus, UniProt P31424); experiment: [3H]-MPEP displacement binding assay, HEK-293 cell membranes expressing rat mGluR5; settings: [3H]-MPEP displacement, read-out: Median Ki
T1 construct: expressed in transfected cells; host or cells: HEK-293
T1 sequence (P31424 21-1203): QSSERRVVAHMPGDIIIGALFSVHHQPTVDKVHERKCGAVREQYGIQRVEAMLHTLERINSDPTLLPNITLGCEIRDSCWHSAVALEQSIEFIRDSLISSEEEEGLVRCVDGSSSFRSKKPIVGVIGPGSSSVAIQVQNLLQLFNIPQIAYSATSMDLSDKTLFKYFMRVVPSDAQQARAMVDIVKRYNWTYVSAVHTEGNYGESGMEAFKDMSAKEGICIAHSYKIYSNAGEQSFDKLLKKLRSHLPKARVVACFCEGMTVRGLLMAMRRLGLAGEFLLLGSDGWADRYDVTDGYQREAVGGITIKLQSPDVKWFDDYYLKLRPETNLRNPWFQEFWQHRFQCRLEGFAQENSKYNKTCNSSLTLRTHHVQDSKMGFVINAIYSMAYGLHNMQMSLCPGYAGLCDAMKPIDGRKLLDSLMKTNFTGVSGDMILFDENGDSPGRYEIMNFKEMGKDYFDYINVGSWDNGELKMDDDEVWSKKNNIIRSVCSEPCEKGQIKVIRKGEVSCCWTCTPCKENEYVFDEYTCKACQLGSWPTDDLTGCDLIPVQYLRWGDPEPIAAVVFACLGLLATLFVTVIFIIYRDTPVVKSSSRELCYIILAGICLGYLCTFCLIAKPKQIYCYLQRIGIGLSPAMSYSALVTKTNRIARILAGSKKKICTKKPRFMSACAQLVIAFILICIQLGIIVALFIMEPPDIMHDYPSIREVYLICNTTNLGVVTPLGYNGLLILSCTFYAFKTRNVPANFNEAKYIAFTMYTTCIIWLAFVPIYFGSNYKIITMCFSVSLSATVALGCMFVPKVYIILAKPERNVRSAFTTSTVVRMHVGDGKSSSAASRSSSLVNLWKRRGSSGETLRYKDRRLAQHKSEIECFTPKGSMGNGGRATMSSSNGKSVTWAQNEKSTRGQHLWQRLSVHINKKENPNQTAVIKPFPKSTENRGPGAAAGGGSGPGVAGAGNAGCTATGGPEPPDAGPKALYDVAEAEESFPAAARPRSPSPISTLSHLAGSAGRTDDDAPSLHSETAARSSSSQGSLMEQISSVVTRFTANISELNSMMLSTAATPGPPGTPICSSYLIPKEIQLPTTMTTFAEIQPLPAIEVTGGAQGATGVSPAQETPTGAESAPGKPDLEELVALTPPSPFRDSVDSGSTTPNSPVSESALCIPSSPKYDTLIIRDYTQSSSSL
Procedure, shortened: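 Membranes from HEK-293 cells expressing rat mGluR5 (12-25 μg protein), incubated 60 min at room temperature with 4 nM [3H]-MPEP in 50 mM Tris pH 7.5, then filtered. Nonspecific binding defined with 10 μM MPEP.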

mGluR5 [1] = biological target: T2, mGluR5 (Rattus norvegicus, UniProt P31424); experiment: IC50 column under 'Biological Activity' (assay not identified in the shown text; not the binding Ki)
T2 sequence (P31424 21-1203): as above

mGluR5 [2] = biological target: T2, mGluR5; experiment: as above; remark: listed apart in the source

Q: Which results are given for Cc1ccc(C(=O)N2CCN(c3noc4ccccc34)CC2)cc1C#Cc1ccccn1 [Compound 307, 3-{4-[4-Methyl-3-(pyridin-2-ylethynyl)benzoyl]piperazin-1-yl}-1,2-benzisoxazole]?
A: Ki (rat mGluR5 receptor; rat mGluR5): 1 nM; IC50 (mGluR5 [1]): 50 nM

Q: For COc1ccnc(N2CCN(C(=O)c3ccc(C)c(C#Cc4ccccn4)c3)CC2)n1 [Compound 308, 4-Methoxy-2-{4-[4-methyl-3-(pyridin-2-ylethynyl)benzoyl]piperazin-1-yl}pyrimidine], which Ki (rat mGluR5 receptor; rat mGluR5) is on record?
A: 8 nM

Q: And the IC50 (mGluR5 [1])?
A: 107 nM

Q: With Cc1ccc(C(=O)N2CCN(c3ncccn3)CC2)cc1C#Cc1ccccn1 [Compound 309, 2-{4-[4-methyl-3-(pyridin-2-ylethynyl)benzoyl]piperazin-1-yl}pyrimidine] as the compound, how does the Ki (rat mGluR5 receptor; rat mGluR5) read?
A: 34 nM

Q: What about the IC50 (mGluR5 [1]) of the same compound?
A: 193 nM

Q: For O=C(c1ccc(F)c(C#Cc2ccccn2)c1)N1CCN(c2ccccn2)CC1 [Compound 313, 1-[4-fluoro-3-(pyridin-2-ylethynyl)benzoyl]-4-pyridin-2-ylpiperazine], which Ki (rat mGluR5 receptor; rat mGluR5) is on record?
A: 23 nM

Q: What about the IC50 (mGluR5 [1]) of the same compound?
A: 62 nM

Q: What does the source list for O=C(c1ccc(F)c(C#Cc2ccccn2)c1)N1CCN(c2noc3ccccc23)CC1 [Compound 316, 3-{4-[4-fluoro-3-(pyridin-2-ylethynyl)benzoyl]piperazin-1-yl}-1,2-benzisoxazole]?
A: Ki (rat mGluR5 receptor; rat mGluR5): 2 nM; IC50 (mGluR5 [1]): 24 nM

Q: For COc1ccnc(N2CCN(C(=O)c3ccc(F)c(C#Cc4ccccn4)c3)CC2)n1 [Compound 317, 2-{4-[4-fluoro-3-(pyridin-2-ylethynyl)benzoyl]piperazin-1-yl}-4-methoxypyrimidine], which Ki (rat mGluR5 receptor; rat mGluR5) is on record?
A: 20 nM

Q: And the IC50 (mGluR5 [1])?
A: 30 nM

Q: CCOc1ccc(C(=O)N2CCN(c3ccccn3)CC2)cc1C#Cc1ccccn1 [Compound 318, 1-[4-ethoxy-3-(pyridin-2-ylethynyl)benzoyl]-4-pyridin-2-ylpiperazine] was tested. Which Ki (rat mGluR5 receptor; rat mGluR5) did it give?
A: 18 nM

Q: And the IC50 (mGluR5 [1])?
A: 19 nM

Q: What does the source list for CCOc1ccc(C(=O)N2CCN(c3nccc(OC)n3)CC2)cc1C#Cc1ccccn1 [Compound 320, 2-{4-[4-ethoxy-3-(pyridin-2-ylethynyl)benzoyl]piperazin-1-yl}-4-methoxypyrimidine]?
A: Ki (rat mGluR5 receptor; rat mGluR5): 20 nM; IC50 (mGluR5 [1]): 31 nM

Q: With CCOc1ccc(C(=O)N2CCN(c3noc4ccccc34)CC2)cc1C#Cc1ccccn1 [Compound 322, 3-{4-[4-ethoxy-3-(pyridin-2-ylethynyl)benzoyl]piperazin-1-yl}-1,2-benzisoxazole] as the compound, how does the Ki (rat mGluR5 receptor; rat mGluR5) read?
A: 6 nM

Q: And the IC50 (mGluR5 [1])?
A: 35 nM

Q: O=C(c1ccc(OCC2CC2)c(C#Cc2ccccn2)c1)N1CCN(c2noc3ccccc23)CC1 [Compound 324, 3-(4-{[4-(cyclopropylmethoxy)-3-(pyridin-2-ylethynyl)phenyl]carbonyl}piperazin-1-yl)-1,2-benzisoxazole] was tested. Which Ki (rat mGluR5 receptor; rat mGluR5) did it give?
A: 5 nM

Q: What about the IC50 (mGluR5 [1]) of the same compound?
A: 78 nM

Q: How did the Ki (rat mGluR5 receptor; rat mGluR5) turn out when COc1ccc(C(=O)N2CCN(c3ccc(Cl)cc3)C(=O)C2)cc1C#Cc1ccccn1 [Compound 326, 1-(4-Chlorophenyl)-4-{[4-methoxy-3-(pyridin-2-ylethynyl)phenyl]carbonyl}piperazin-2-one] was run?
A: 72 nM

Q: And the IC50 (mGluR5 [1])?
A: 29 nM

Q: With COc1ccc(C(=O)N2CCN(c3cccc(Cl)c3)C(=O)C2)cc1C#Cc1ccccn1 [Compound 327, 1-(3-chlorophenyl)-4-{[4-methoxy-3-(pyridin-2-ylethynyl)phenyl]carbonyl}piperazin-2-one] as the compound, how does the Ki (rat mGluR5 receptor; rat mGluR5) read?
A: 40 nM

Q: What about the IC50 (mGluR5 [1]) of the same compound?
A: 49 nM

Q: Which Ki (rat mGluR5 receptor; rat mGluR5) does the source give for COc1ccc(C(=O)N2CCN(c3ccccc3Cl)C(=O)C2)cc1C#Cc1ccccn1 [Compound 328, 1-(2-chlorophenyl)-4-{[4-methoxy-3-(pyridin-2-ylethynyl)phenyl]carbonyl}piperazin-2-one] here?
A: 96 nM

Q: What about the IC50 (mGluR5 [1]) of the same compound?
A: 50 nM

Q: With COc1ccc(C(=O)N2CCN(c3ccccc3)C(=O)C2)cc1C#Cc1ccccn1 [Compound 329, 4-{[4-methoxy-3-(pyridin-2-ylethynyl)phenyl]carbonyl}-1-phenylpiperazin-2-one] as the compound, how does the Ki (rat mGluR5 receptor; rat mGluR5) read?
A: 84 nM

Q: And the IC50 (mGluR5 [1])?
A: 118 nM

Q: Which results are given for COc1ccc(C(=O)N2CCN(Cc3ccccc3)C(=O)C2)cc1C#Cc1ccccn1 [Compound 331, 1-Benzyl-4-[4-methoxy-3-(pyridin-2-ylethynyl)benzoyl]piperazin-2-one]?
A: Ki (rat mGluR5 receptor; rat mGluR5): 61 nM; IC50 (mGluR5 [1]): 51 nM

Q: Which results are given for O=C(c1ccc(OC(F)(F)F)c(C#Cc2ccccn2)c1)N1CCN(c2cnccn2)CC1 [Compound 335, 2-{4-[3-(pyridin-2-ylethynyl)-4-(trifluoromethoxy)benzoyl]piperazin-1-yl}pyrazine]?
A: Ki (rat mGluR5 receptor; rat mGluR5): 176 nM; IC50 (mGluR5 [1]): 273 nM

Q: How did the Ki (rat mGluR5 receptor; rat mGluR5) turn out when O=C(c1ccc(OC(F)(F)F)c(C#Cc2ccccn2)c1)N1CCN(c2noc3ccccc23)CC1 [Compound 338, 3-{4-[3-(pyridin-2-ylethynyl)-4-(trifluoromethoxy)benzoyl]piperazin-1-yl}-1,2-benzisoxazole] was run?
A: 1 nM

Q: What about the IC50 (mGluR5 [1]) of the same compound?
A: 16 nM

Q: With O=C(c1ccc(OC(F)(F)F)c(C#Cc2ccccn2)c1)N1CCN(c2ccccn2)CC1 [Compound 340, 1-Pyridin-2-yl-4-{[3-(pyridin-2-ylethynyl)-4-(trifluoromethoxy)phenyl]carbonyl}piperazine] as the compound, how does the Ki (rat mGluR5 receptor; rat mGluR5) read?
A: 2 nM

Q: What about the IC50 (mGluR5 [1]) of the same compound?
A: 7 nM

Q: For COc1ccc(C(=O)N2CCN(c3ncccn3)CC2)cc1C#Cc1cccc(C#N)c1 [Compound 361, 3-({2-methoxy-5-[(4-pyrimidin-2-ylpiperazin-1-yl)carbonyl]phenyl}ethynyl)benzonitrile], which Ki (rat mGluR5 receptor; rat mGluR5) is on record?
A: 64 nM

Q: What about the IC50 (mGluR5 [1]) of the same compound?
A: 56 nM

Q: Which results are given for COc1ccc(C(=O)N2CCN(c3ncccn3)CC2)cc1C#Cc1ccc(F)cc1 [Compound 362, 2-(4-{3-[(4-fluorophenyl)ethynyl]-4-methoxybenzoyl}piperazin-1-yl)pyrimidine]?
A: Ki (rat mGluR5 receptor; rat mGluR5): 68 nM; IC50 (mGluR5 [1]): 1450 nM

Q: Which Ki (rat mGluR5 receptor; rat mGluR5 membranes) does the source give for O=C(c1ccc(C(F)(F)F)c(C#Cc2ccccn2)c1)N1CCN(c2ccccn2)CC1 [Compound 369, 1-pyridin-2-yl-4-{[3-(pyridin-2-ylethynyl)-4-(trifluoromethyl)phenyl]carbonyl}piperazine] here?
A: 31 nM

Q: And the IC50 (mGluR5 [2])?
A: 30 nM

Q: For COc1ccnc(N2CCN(C(=O)c3ccc(C(F)(F)F)c(C#Cc4ccccn4)c3)CC2)n1 [Compound 373, 4-methoxy-2-(4-{[3-(pyridin-2-ylethynyl)-4-(trifluoromethyl)phenyl]carbonyl}piperazin-1-yl)pyrimidine], which Ki (rat mGluR5 receptor; rat mGluR5 membranes) is on record?
A: 40 nM

Q: And the IC50 (mGluR5 [2])?
A: 34 nM

Q: Which results are given for O=C(c1ccc(C(F)(F)F)c(C#Cc2ccccn2)c1)N1CCN(c2noc3ccccc23)CC1 [Compound 374, 3-(4-{[3-(pyridin-2-ylethynyl)-4-(trifluoromethyl)phenyl]carbonyl}piperazin-1-yl)-1,2-benzisoxazole]?
A: Ki (rat mGluR5 receptor; rat mGluR5 membranes): 4 nM; IC50 (mGluR5 [2]): 53 nM

Q: What does the source list for O=C(c1ccc(C(F)(F)F)c(C#Cc2ccccn2)c1)N1CCN(C(=O)c2ccco2)CC1 [Compound 375, 1-(furan-2-ylcarbonyl)-4-{[3-(pyridin-2-ylethynyl)-4-(trifluoromethyl)phenyl]carbonyl}piperazine]?
A: Ki (rat mGluR5 receptor; rat mGluR5 membranes): 29 nM; IC50 (mGluR5 [2]): 40 nM

Q: How did the Ki (rat mGluR5 receptor; rat mGluR5 membranes) turn out when O=C(c1ccc(C(F)(F)F)c(C#Cc2ccccn2)c1)N1CCN(c2nccs2)CC1 [Compound 378, 1-{[3-(pyridin-2-ylethynyl)-4-(trifluoromethyl)phenyl]carbonyl}-4-(1,3-thiazol-2-yl)piperazine] was run?
A: 49 nM

Q: What about the IC50 (mGluR5 [2]) of the same compound?
A: 43 nM

Q: With COc1nc(N2CCN(C(=O)c3ccc(OC(F)F)c(C#Cc4ccccn4)c3)CC2)ncc1Br [Compound 382, 5-bromo-2-(4-{[4-(difluoromethoxy)-3-(pyridin-2-ylethynyl)phenyl]carbonyl}piperazin-1-yl)-4-methoxy pyrimidine] as the compound, how does the Ki (rat mGluR5 receptor; rat mGluR5 membranes) read?
A: 35 nM

Q: What about the IC50 (mGluR5 [2]) of the same compound?
A: 104 nM

Q: Which Ki (rat mGluR5 receptor; rat mGluR5 membranes) does the source give for O=C(c1ccc(OC(F)F)c(C#Cc2ccccn2)c1)N1CCN(c2nsc3ccccc23)CC1 [Compound 383, 3-(4-{[4-(difluoromethoxy)-3-(pyridin-2-ylethynyl)phenyl]carbonyl}piperazin-1-yl)-1,2-benzisothiazole] here?
A: 1 nM

Q: And the IC50 (mGluR5 [2])?
A: 41 nM

Q: O=C(c1ccc(OC(F)F)c(C#Cc2ccccn2)c1)N1CCN(c2noc3ccccc23)CC1 [Compound 384, 3-(4-{[4-(difluoromethoxy)-3-(pyridin-2-ylethynyl)phenyl]carbonyl}piperazin-1-yl)-1,2-benzisoxazole] was tested. Which Ki (rat mGluR5 receptor; rat mGluR5 membranes) did it give?
A: 1 nM

Q: What about the IC50 (mGluR5 [2]) of the same compound?
A: 16 nM

Q: For O=C(c1ccc(OC(F)F)c(C#Cc2ccccn2)c1)N1CCN(c2ccccn2)CC1 [Compound 385, 1-{[4-(Difluoromethoxy)-3-(pyridin-2-ylethynyl)phenyl]carbonyl}-4-pyridin-2-ylpiperazin], which Ki (rat mGluR5 receptor; rat mGluR5 membranes) is on record?
A: 7 nM

Q: And the IC50 (mGluR5 [2])?
A: 13 nM

Q: How did the Ki (rat mGluR5 receptor; rat mGluR5 membranes) turn out when O=C(c1ccc(Cl)c(C#Cc2ccccn2)c1)N1CCN(c2ccccn2)CC1 [Compound 386, 1-[4-chloro-3-(pyridin-2-ylethynyl)benzoyl]-4-pyridin-2-ylpiperazin] was run?
A: 3 nM

Q: What about the IC50 (mGluR5 [2]) of the same compound?
A: 39 nM

Q: With O=C(c1ccc(Cl)c(C#Cc2ccccn2)c1)N1CCN(c2ncccn2)CC1 [Compound 387, 2-{4-[4-chloro-3-(pyridin-2-ylethynyl)benzoyl]piperazin-1-yl}pyrimidine] as the compound, how does the Ki (rat mGluR5 receptor; rat mGluR5 membranes) read?
A: 10 nM

Q: And the IC50 (mGluR5 [2])?
A: 131 nM

Q: For O=C(c1ccc(Cl)c(C#Cc2ccccn2)c1)N1CCN(c2cnccn2)CC1 [Compound 388, 2-{4-[4-chloro-3-(pyridin-2-ylethynyl)benzoyl]piperazin-1-yl}pyrazine], which Ki (rat mGluR5 receptor; rat mGluR5 membranes) is on record?
A: 13 nM

Q: And the IC50 (mGluR5 [2])?
A: 94 nM

Q: How did the Ki (rat mGluR5 receptor; rat mGluR5 membranes) turn out when N#Cc1cccnc1N1CCN(C(=O)c2ccc(Cl)c(C#Cc3ccccn3)c2)CC1 [Compound 389, 2-{4-[4-chloro-3-(pyridin-2-ylethynyl)benzoyl]piperazin-1-yl}nicotinonitrile] was run?
A: 63 nM

Q: And the IC50 (mGluR5 [2])?
A: 239 nM

Q: O=C(c1ccc(Cl)c(C#Cc2ccccn2)c1)N1CCN(c2nccs2)CC1 [Compound 390, 1-[4-chloro-3-(pyridin-2-ylethynyl)benzoyl]-4-(1,3-thiazol-2-yl)piperazine] was tested. Which Ki (rat mGluR5 receptor; rat mGluR5 membranes) did it give?
A: 7 nM

Q: And the IC50 (mGluR5 [2])?
A: 39 nM

Q: How did the Ki (rat mGluR5 receptor; rat mGluR5 membranes) turn out when O=C(c1ccc(Cl)c(C#Cc2ccccn2)c1)N1CCN(c2ccncc2)CC1 [Compound 391, 1-[4-chloro-3-(pyridin-2-ylethynyl)benzoyl]-4-pyridin-4-ylpiperazine] was run?
A: 79 nM

Q: What about the IC50 (mGluR5 [2]) of the same compound?
A: 1490 nM
